Experiment [1] deals with T1, hamster INPP5K (Cricetulus griseus, UniProt G3HTF6).
T1 construct: hamster INPP5K (aa 1–453, UniProt ID: G3HTF6); FLAG (N); made in house; host or cells: Expi293 cells (pcDNA3.4, transient)
T1 sequence (G3HTF6 1-451): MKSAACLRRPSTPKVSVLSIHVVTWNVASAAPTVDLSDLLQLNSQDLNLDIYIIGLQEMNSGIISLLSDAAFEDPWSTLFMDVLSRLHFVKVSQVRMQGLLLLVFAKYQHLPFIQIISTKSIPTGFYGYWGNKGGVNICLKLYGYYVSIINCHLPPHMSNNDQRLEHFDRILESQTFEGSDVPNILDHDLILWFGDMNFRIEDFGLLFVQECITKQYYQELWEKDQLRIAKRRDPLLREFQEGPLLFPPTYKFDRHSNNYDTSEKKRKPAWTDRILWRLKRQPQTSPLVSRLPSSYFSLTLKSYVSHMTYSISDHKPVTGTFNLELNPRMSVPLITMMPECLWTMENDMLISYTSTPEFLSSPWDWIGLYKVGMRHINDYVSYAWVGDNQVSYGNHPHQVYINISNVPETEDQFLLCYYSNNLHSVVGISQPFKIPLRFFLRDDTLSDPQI
The experiment is described as follows: Inorganic phosphate detection assay for phosphatase inhibition. It counts as biochemical. As to conditions: 20 µM diC8-PI(3,4,5)P3, 20 min. The text has this: (§1) The protein purification is described in detail elsewhere. Briefly, full-length human INPP5K (amino acids 1–448, UniProt ID: Q9BT40), rat INPP5K (aa 1–446, UniProt ID: Q9R0B6), mouse INPP5K (aa 1–468, UniProt ID: Q8C5L6), hamster INPP5K (aa 1–453, UniProt ID: G3HTF6), guinea pig INPP5K (aa 1–473, UniProt ID: H0V8T7) containing an N-terminal FLAG-tag, full-length human SHIP2 (aa 1–1 258) containing a C-terminal FLAG-tag, and full-length human PIPP (amino acids 1–1 006) containing an N-terminal His8-tag were all cloned into the pcDNA3.4 expression vector and transiently expressed in Expi293 cells (Thermo Fisher Scientific). The PH domain of human TAPP1 (amino acids 180–404) containing an N-terminal GST-tag was expressed in a pGEX6P1 expression vector (GE Healthcare) in E. coli strain BL21 ((Merck KGaA, Darmstadt, Germany)), following IPTG induction at 37 °C for 5 h. All the FLAG-tagged INPP5Ks and hSHIP2 were purified using affinity columns containing DDDDK-tagged protein purification gel (MBL, Medical & Biological Laboratories Co., Ltd., Tokyo, Japan), followed by size-exclusion chromatography with Superdex 200 columns (GE Healthcare). His8-tagged hPIPP was purified using Ni–NTA Superflow (Qiagen) and Superdex 200 columns. The GST-tagged hTAPP1 domain was purified using a Glutathione Sepharose 4B (GE Healthcare) and Superdex 200 columns. The purity of the protein obtained was evaluated using SDS-PAGE.
(§2) The release of inorganic phosphate was measured using a PiPer Phosphate Assay Kit (Thermo Fisher Scientific), according to the manufacturer’s instructions, but with some modifications. Enzyme reactions were performed in a final volume of 10 µL per well in a 384-well nonbinding black plates (Greiner Bio-One International, GmbH, Kremsmünster, Austria). The reaction mixtures containing 20 µM diC8-PI(3,4,5)P₃ and each enzyme (human INPP5K, mouse INPP5K, rat INPP5K, hamster INPP5K, guinea pig INPP5K, human SHIP2, or human PIPP) in reaction buffer (50 mM Tris–HCl pH 7.0, 150 mM NaCl, 7.5 mM MgCl₂, 0.03% Igepal CA-630, 0.03% gelatin), with or without various concentrations of inhibitor, were incubated for 20 min at room temperature. The reactions were then stopped and detection reactions were initiated by adding 5 µL of detection mix 1 (60 mM EDTA, 12 U/mL maltose phosphorylase, and 0.6 mM maltose in 100 mM Tris–HCl pH 8.0). After incubation for 60 min at room temperature, 5 µL of detection mix 2 (8 U/mL glucose oxidase, 0.8 U/mL HRP, and 100 µM Amplex Red in 100 mM Tris–HCl pH 8.0) was added, and the mixture was incubated for a further 30 min at room temperature in the dark. The fluorescence generated was measured using an Envision plate reader at 531/590 nm (excitation/emission), and the percentage inhibition was calculated as described above.

Experiment [2] concerns the target T2, human PIPP (Homo sapiens, UniProt Q15735).
T2 construct: full-length human PIPP (amino acids 1–1 006) containing an N-terminal His8-tag; His8 (N); made in house; host or cells: Expi293 cells (pcDNA3.4, transient)
T2 sequence (Q15735 1-1006): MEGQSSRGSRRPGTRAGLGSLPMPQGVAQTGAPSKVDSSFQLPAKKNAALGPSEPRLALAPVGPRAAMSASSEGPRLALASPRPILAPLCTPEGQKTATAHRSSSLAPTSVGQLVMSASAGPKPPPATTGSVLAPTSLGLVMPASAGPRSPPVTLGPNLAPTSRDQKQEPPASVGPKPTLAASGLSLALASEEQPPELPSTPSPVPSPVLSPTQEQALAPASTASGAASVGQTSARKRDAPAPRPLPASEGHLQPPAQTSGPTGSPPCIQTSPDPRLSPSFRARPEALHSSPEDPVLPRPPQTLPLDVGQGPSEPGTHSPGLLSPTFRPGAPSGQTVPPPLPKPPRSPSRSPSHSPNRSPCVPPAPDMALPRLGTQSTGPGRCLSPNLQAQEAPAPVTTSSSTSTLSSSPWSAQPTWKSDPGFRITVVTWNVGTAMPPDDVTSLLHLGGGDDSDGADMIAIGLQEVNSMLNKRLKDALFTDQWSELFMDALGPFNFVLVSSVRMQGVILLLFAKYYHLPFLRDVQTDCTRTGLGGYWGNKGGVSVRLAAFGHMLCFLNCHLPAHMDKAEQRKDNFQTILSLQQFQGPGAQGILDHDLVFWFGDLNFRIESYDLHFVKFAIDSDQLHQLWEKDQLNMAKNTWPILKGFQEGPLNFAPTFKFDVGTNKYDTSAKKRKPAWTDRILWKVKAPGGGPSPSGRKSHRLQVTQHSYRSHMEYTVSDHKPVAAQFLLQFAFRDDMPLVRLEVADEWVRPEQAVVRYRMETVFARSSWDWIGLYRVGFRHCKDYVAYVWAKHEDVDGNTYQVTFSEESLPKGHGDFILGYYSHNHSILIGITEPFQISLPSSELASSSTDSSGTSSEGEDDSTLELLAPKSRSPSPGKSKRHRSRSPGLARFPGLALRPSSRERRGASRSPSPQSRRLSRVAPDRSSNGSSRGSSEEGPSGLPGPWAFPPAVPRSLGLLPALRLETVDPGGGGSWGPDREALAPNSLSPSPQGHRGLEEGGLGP
The description is as above. It counts as biochemical. As to conditions: 20 µM diC8-PI(3,4,5)P3, 20 min.
Source text: as §1, §2

The results in this text go back to PMC13047053, “Crystal structure of human INPP5K with an allosteric inhibitor reveals the structural basis for species specific potency” (Scientific Reports, 2026).

Usually IC50 stands for the midpoint of a concentration-inhibition curve. With `CC(C)c1sc(NC(=O)c2ccccc2)c(C(=O)O)c1-c1ccccc1` [CPD-1], the values for the IC50 in experiment [1] and in experiment [2] were 8.2 µM and greater than 100 µM, respectively.
